Experimental data: EP0768085A1, “ANTIBACTERIAL AGENT” (DAIICHI PHARMACEUTICAL CO., LTD., priority 1994, dated 1996)
Values after ≈ are worked out from the molar mass of the structure shown.

What was measured:
Assay type in all cases: cell-based
[1] = system: Streptococcus aureus (TI-1); assay: Antibacterial activity (IC), agar as in Example 8 (Example 16, Table 49); details: 18 h
Protocol: (§1) The antibacterial action was evaluated by the inhibitory concentration (hereinafter abbreviated as IC) at which propagation of the bacteria cultured at 37°C for 18 hours was inhibited. Inhibition was determined by the turbidity of the medium. The expressions "IC≤100", "≤10", and "≤1" indicate that MIC-equivalent values obtained at the succesive […] dilution of the sample are 100-10 µg/ml, 10-1 µg/ml, and not more than 1 µg/ml, respectively. […] (In the subsequent Examples, the same rule applies correspondingly.) Table 39
(§2) A suitable amount of a sample was dissolved in dimethylsulfoxide (DMSO), after which the resulting solution was diluted with the same amount of sterilized distilled water to prepare a bulk sample of 1,000 µg/ml. Separately, a bacterial liquid for the test (methicillin-resistant Staphylococcus aureus (MRSA) isolated from humans) which had been cultured in Mueller-Hinton broth (product of DIFCO) was prepared and inoculated to a Mueller-Hinton agar (product of DIFCO) containing the sample so that the final inoculation amount of 10^6 CFU/ml was achieved. The final concentrations of the samples were 100, 10, and 1 µg/ml.
(§3) After culturing at 37°C for 18 hours, the antibacterial activity was evaluated in terms of IC in a manner similar to that described in Example 4.
In a manner similar to that described in Example 8, antibacterial activity of the invention compound was determined. The bacterium used for the test was […] aureus (TI-1).

[2] = system: Pasteurella multocida (Kobe-6); assay: Antibacterial activity (IC), agar as in Example 8 (Example 17, Table 50); details: 18 h, origin pig
Protocol: as §1, §2, §3
In a manner similar to that described in Example 8, antibacterial activity of the invention compound was determined. The bacterium used for the test was Pasteurella Kobe-6 (origin: pig, Pasteurella multocida).

[3] = system: Staphylococcus aureus (209-P); assay: Antibacterial activity (IC), agar as in Example 8 (Example 15, Table 48); details: 18 h
Protocol: as §1, §2, §3
The bacterium used for the test was Staphylococcus aureus (209-P).

[4] = system: methicillin-resistant Staphylococcus aureus (MRSA) from humans; assay: Antibacterial activity (IC), agar as in Example 8 (Example 19, Table 52); details: 18 h
Protocol: as §1, §2, §3
In a manner similar to that described in Example 8, antibacterial activity of a variety of ketonitrile derivatives shown in Table 52 was measured. The bacterium used for the test was methicillin-resistant Staphylococcus aureus (MRSA) from humans.

Pasteurella from fish = assay: Antibacterial activity (IC), agar as in Example 8, media with 1.5% NaCl, 25°C (Example 20, Tables 53-55); details: for MIC: Pasteurella piscicida KP94-02
Protocol: as §1, §2, §3
(§4) In a manner similar to that described in Example 8, antibacterial activity of a variety of ketonitrile derivatives shown in Tables 53-55 was measured. The bacteria used for the test were Enterococcus and Pasteurella from fish. The culture conditions were such that the media contained 1.5% NaCl, and the culture temperature was 25°C.

Enterococcus from fish = assay: as above; details: for MIC: Enterococcus Seriolicida SE94-002
Protocol: as §1, §2, §3, §4

[5] = Enterococcus Seriolicida KG86050
[6] = Enterococcus Seriolicida MS89060
[7] = Enterococcus Seriolicida MS89064
[8] = Enterococcus Seriolicida MS89066
[9] = Enterococcus Seriolicida MS89068
[10] = Enterococcus Seriolicida SE94-001
[11] = Enterococcus Seriolicida SE94-003
[12] = Enterococcus Seriolicida SE94-004
[13] = Enterococcus Seriolicida SE94-005

**Q.** For `CC(Oc1cccc(Oc2ccc(C(F)(F)F)cc2Cl)c1)C(=O)C(C#N)c1cccc(Br)c1` (stereo not drawn) [Compound No. 104, 2-(3-bromophenyl)-4-[3-(2-chloro-4-trifluoromethylphenoxy)phenoxy]-3-oxopentanonitrile], which MIC [1] is on record?
**A.** ≤ 1 µg/mL

**Q.** What about the MIC [2] of the same compound?
**A.** 1 to 10 µg/mL (≈ 1.86 to 18.6 µM)

**Q.** And the MIC [3]?
**A.** ≤ 1 µg/mL

**Q.** And the MIC ([4]; MRSA strain 891179)?
**A.** 1 to 10 µg/mL (≈ 1.86 to 18.6 µM)

**Q.** What about the MIC ([4]; MRSA strain 891185) of the same compound?
**A.** 1 to 10 µg/mL (≈ 1.86 to 18.6 µM)

**Q.** What about the MIC ([4]; MRSA strain 891187) of the same compound?
**A.** 1 to 10 µg/mL (≈ 1.86 to 18.6 µM)

**Q.** What about the MIC ([4]; MRSA strain 891192) of the same compound?
**A.** 1 to 10 µg/mL (≈ 1.86 to 18.6 µM)

**Q.** And the MIC ([4]; MRSA strain 900048)?
**A.** 1 to 10 µg/mL (≈ 1.86 to 18.6 µM)

**Q.** And the MIC ([4]; MRSA strain 900056)?
**A.** 1 to 10 µg/mL (≈ 1.86 to 18.6 µM)

**Q.** With `CC(Oc1cccc(Oc2ccc(C(F)(F)F)cc2Cl)c1)C(=O)C(C#N)c1cccc(C(F)(F)F)c1` (stereo not drawn) [Compound No. 106, 4-[3-(2-chloro-4-trifluoromethylphenoxy)phenoxy]-3-oxo-2-(3-trifluoromethylphenyl)pentanonitrile] as the compound, how does the MIC [1] read?
**A.** 1 to 10 µg/mL (≈ 1.89 to 18.9 µM)

**Q.** And the MIC [2]?
**A.** 10 to 100 µg/mL (≈ 18.9 to 189 µM)

**Q.** What about the MIC [3] of the same compound?
**A.** 1 to 10 µg/mL (≈ 1.89 to 18.9 µM)

**Q.** And the MIC (Pasteurella from fish)?
**A.** 10 to 100 µg/mL (≈ 18.9 to 189 µM)

**Q.** And the IC (Pasteurella from fish; Pasteurella piscicida KP94-04)?
**A.** ≤100 (MIC-equivalent values obtained at the succesive 2-fold dilution of the sample are 100-10 µg/ml)

**Q.** And the IC (Pasteurella from fish; Pasteurella piscicida KP94-05)?
**A.** ≤100 (MIC-equivalent values obtained at the succesive 2-fold dilution of the sample are 100-10 µg/ml)

**Q.** What about the IC (Pasteurella from fish; Pasteurella piscicida KP94-06) of the same compound?
**A.** ≤100 (MIC-equivalent values obtained at the succesive 2-fold dilution of the sample are 100-10 µg/ml)

**Q.** What about the IC (Enterococcus from fish; Enterococcus Seriolicida HI) of the same compound?
**A.** ≤10 (10-1 µg/ml)

**Q.** And the IC (Enterococcus from fish; [5])?
**A.** ≤10 (10-1 µg/ml)

**Q.** And the IC (Enterococcus from fish; [6])?
**A.** ≤10 (10-1 µg/ml)

**Q.** And the IC (Enterococcus from fish; [7])?
**A.** ≤10 (10-1 µg/ml)

**Q.** What about the IC (Enterococcus from fish; [8]) of the same compound?
**A.** ≤10 (10-1 µg/ml)

**Q.** What about the IC (Enterococcus from fish; [9]) of the same compound?
**A.** ≤10 (10-1 µg/ml)

**Q.** What about the IC (Enterococcus from fish; [10]) of the same compound?
**A.** ≤10 (10-1 µg/ml)

**Q.** And the MIC (Enterococcus from fish)?
**A.** 1 to 10 µg/mL (≈ 1.89 to 18.9 µM)

**Q.** And the IC (Enterococcus from fish; [11])?
**A.** ≤10 (10-1 µg/ml)

**Q.** And the IC (Enterococcus from fish; [12])?
**A.** ≤10 (10-1 µg/ml)

**Q.** What about the IC (Enterococcus from fish; [13]) of the same compound?
**A.** ≤10 (10-1 µg/ml)

**Q.** With `CC(Oc1cccc(Oc2ccc(C(F)(F)F)cc2Cl)c1)C(=O)C(C#N)c1ccc(Cl)cc1Cl` (stereo not drawn) [Compound No. 108, 4-[3-(2-chloro-4-trifluoromethyl-phenoxy)phenoxy)-2-(2,4-dichlorophenyl)-3-oxopentanonitrile] as the compound, how does the MIC [1] read?
**A.** 1 to 10 µg/mL (≈ 1.89 to 18.9 µM)

**Q.** And the MIC [2]?
**A.** 10 to 100 µg/mL (≈ 18.9 to 189 µM)

**Q.** And the MIC [3]?
**A.** 1 to 10 µg/mL (≈ 1.89 to 18.9 µM)

**Q.** And the MIC (Pasteurella from fish)?
**A.** 10 to 100 µg/mL (≈ 18.9 to 189 µM)

**Q.** And the IC (Pasteurella from fish; Pasteurella piscicida KP94-04)?
**A.** ≤100 (MIC-equivalent values obtained at the succesive 2-fold dilution of the sample are 100-10 µg/ml)

**Q.** And the IC (Pasteurella from fish; Pasteurella piscicida KP94-05)?
**A.** ≤100 (MIC-equivalent values obtained at the succesive 2-fold dilution of the sample are 100-10 µg/ml)

**Q.** And the IC (Pasteurella from fish; Pasteurella piscicida KP94-06)?
**A.** ≤100 (MIC-equivalent values obtained at the succesive 2-fold dilution of the sample are 100-10 µg/ml)

**Q.** What about the IC (Enterococcus from fish; Enterococcus Seriolicida HI) of the same compound?
**A.** ≤10 (10-1 µg/ml)

**Q.** What about the IC (Enterococcus from fish; [5]) of the same compound?
**A.** ≤10 (10-1 µg/ml)

**Q.** What about the IC (Enterococcus from fish; [6]) of the same compound?
**A.** ≤10 (10-1 µg/ml)

**Q.** And the IC (Enterococcus from fish; [7])?
**A.** ≤10 (10-1 µg/ml)

**Q.** And the IC (Enterococcus from fish; [8])?
**A.** ≤10 (10-1 µg/ml)

**Q.** And the IC (Enterococcus from fish; [9])?
**A.** ≤10 (10-1 µg/ml)

**Q.** What about the IC (Enterococcus from fish; [10]) of the same compound?
**A.** ≤10 (10-1 µg/ml)

**Q.** And the MIC (Enterococcus from fish)?
**A.** 1 to 10 µg/mL (≈ 1.89 to 18.9 µM)

**Q.** What about the IC (Enterococcus from fish; [11]) of the same compound?
**A.** ≤10 (10-1 µg/ml)

**Q.** What about the IC (Enterococcus from fish; [12]) of the same compound?
**A.** ≤10 (10-1 µg/ml)

**Q.** What about the IC (Enterococcus from fish; [13]) of the same compound?
**A.** ≤10 (10-1 µg/ml)

**Q.** What does the source list for `CC(Oc1cc(Oc2ccc(C(F)(F)F)cc2Cl)ccc1[N+](=O)[O-])C(=O)C(C#N)c1ccc(Cl)cc1Cl` (stereo not drawn) [Compound No. 116, 4-[5-(2-chloro-4-trifluoromethylphenoxy)-2-nitrophenoxy]-2-(2,4-dichlorophenyl)-3-oxopentanonitrile]?
**A.** MIC [1]: 1 to 10 µg/mL (≈ 1.74 to 17.4 µM); MIC [2]: 1 to 10 µg/mL (≈ 1.74 to 17.4 µM); MIC [3]: 1 to 10 µg/mL (≈ 1.74 to 17.4 µM); MIC (Pasteurella from fish): 10 to 100 µg/mL (≈ 17.4 to 174 µM); IC (Pasteurella from fish; Pasteurella piscicida KP94-04): ≤100 (MIC-equivalent values obtained at the succesive 2-fold dilution of the sample are 100-10 µg/ml); IC (Pasteurella from fish; Pasteurella piscicida KP94-05): ≤100 (MIC-equivalent values obtained at the succesive 2-fold dilution of the sample are 100-10 µg/ml); IC (Pasteurella from fish; Pasteurella piscicida KP94-06): ≤100 (MIC-equivalent values obtained at the succesive 2-fold dilution of the sample are 100-10 µg/ml); IC (Enterococcus from fish; Enterococcus Seriolicida HI): ≤10 (10-1 µg/ml); IC (Enterococcus from fish; [5]): ≤10 (10-1 µg/ml); IC (Enterococcus from fish; [6]): ≤10 (10-1 µg/ml); IC (Enterococcus from fish; [7]): ≤10 (10-1 µg/ml); IC (Enterococcus from fish; [8]): ≤10 (10-1 µg/ml); IC (Enterococcus from fish; [9]): ≤10 (10-1 µg/ml); IC (Enterococcus from fish; [10]): ≤10 (10-1 µg/ml); MIC (Enterococcus from fish): 1 to 10 µg/mL (≈ 1.74 to 17.4 µM); IC (Enterococcus from fish; [11]): ≤10 (10-1 µg/ml); IC (Enterococcus from fish; [12]): ≤10 (10-1 µg/ml); IC (Enterococcus from fish; [13]): ≤10 (10-1 µg/ml)
